# Measured values published in publication PMC10672842, “Anti-Trypanosoma cruzi Activity, Mutagenicity, Hepatocytotoxicity and Nitroreductase Enzyme Evaluation of 3-Nitrotriazole, 2-Nitroimidazole and Triazole Derivatives” (Molecules, 2023).
# Read-outs that look alike come from different tables or passages of the source.
# How the values were obtained:
# [1] = test system: S. typhimurium TA98; test: Salmonella reverse mutation assay (Ames test, preincubation), TA98
# Method: (§1) The compounds were tested in a reverse mutation assay preincubation protocol in the absence and presence of metabolic activation following standard protocols previously proposed by Maron and Ames. The histidine-dependent (his^−) strains TA98 and TA100 of Salmonella typhimurium were inoculated in 10 mL of Oxoid nutrient broth No. 2 containing 25 µg/mL ampicillin and incubated overnight (15–18 h) at 37 ± 1 °C on an orbital shaker (CT-712, Cientec, Belo Horizonte, MG, Brazil) at 150 rpm, obtaining a concentration of 1–2 × 10^9 cells/mL, confirmed by titration in nutrient agar plates. Briefly, 100 µL of stationary growth cultures of each strain were preincubated for 20 min on an orbital shaker (150 rpm) at 37 ± 1 °C, with 500 µL of 0.2 M phosphate buffer pH 7.4, or 500 µL of S9 mix 4% (Molecular Toxicology, Baltimore, MD, USA), and 100 µL of compound dilutions (0–5000 µM) or controls. DMSO 1% was used as a negative control. […] After incubation, 2 mL of top agar (0.7% agar, 0.5% NaCl, 0.05 mM L-histidine and D-biotin) at 45 ± 3 °C was added and gently mixed. The final mixture was poured on glucose minimal agar plates (1.5% agar, 10 g/L MgSO4·7H2O; 100 g/L of C6H8O7·H2O; 500 g/L K2HPO4; 175 g/L Na(NH4)HPO4·4H2O, 2% glucose) and incubated for 72 h at 37 ± 1 °C. The results were expressed as the mean of revertant colonies (His^+) per plate, standard deviation (SD) and mutagenicity induction fold (IF), calculated as the ratio between the number of colonies in the test group and the number of colonies in the negative control group. Mutagenic potency was calculated as the slope of the linear portion of the concentration–response function and expressed as revertants/µM. All assays were performed in triplicate and repeated at least two times. Statistical analyses were carried out in GraphPad Prism software (version 5.00, GraphPad Software, Boston, MA, USA).
# [2] = test system: S. typhimurium TA1535
# [3] = test system: T. cruzi nitroreductase enzyme (TcNTR); test: Kinetic assay with Trypanosoma cruzi nitroreductase enzyme (NADH oxidation); type: biochemical
# Method: To determine a potential mechanism of action, nitroazole derivatives 5, 6, 8 and 9 were evaluated as substrates of the T. cruzi nitroreductase enzyme (TcNTR) and compared to BZN, the reference prodrug (Table 2). The enzymatic activity was measured by monitoring the oxidation of NADH, the first substrate of the enzyme, via spectrophotometric assays. […] At a concentration of 25 µM, derivatives 5 and 8 were metabolized at rates 2.3 and 2.6 times higher than that of BZN, respectively. At 50 µM, the compounds presented metabolism rates 1.6 and 3.0 times higher than that of BZN, respectively.
# The protocols for expressing, purifying and conducting kinetic analysis with the recombinant TcNTR enzyme were adapted from the methods originally developed by Shane Wilkinson, with certain modifications.
# For the kinetics assays, it was prepared a 200 μL solution which included 50 mM Tris-Base at pH 7.5, with a constant concentration of both NADH (50 μM) and the substances 5, 6, 8, 9 or BZN. Specifically, two distinct fixed concentrations (25 and 50 μM) of the substances 5, 6, 8, 9 or BZN were tested. These prepared mixtures were then incubated for 5 min at room temperature. Subsequently, the reaction was initiated by adding NTR to achieve a final concentration of 10 μg/mL. The reaction rates were monitored using a Hitachi U-2900 spectrophotometer, measuring the consumption of the primary substrate, NADH (λ = 340 nm; ε = 6.220 M^−1 cm^−1), over a 2-min interval. The resulting data curves were analyzed through linear regression using OriginPro 2016 software. To evaluate the reaction rate (Kobs) obtained from the 25 and 50 μM concentrations of each substrate, comparisons were made with the reference values for BZN. Measurement errors were calculated using the formula: Error = Z × σ/√n, where ‘Z’ denotes the critical value, ‘σ’ represents the standard deviation and ‘n’ is the number of test measurements, which were performed at least in triplicate.
# [4] = test system: S. typhimurium TA100
# Method: as §1
smiles,measurement,setting,value
"O=[N+]([O-])c1ncn(CC(O)c2ccc(F)cc2F)n1 (stereo not shown) [Compound 8, 1-(2,4-Difluorophenyl)-2-(3-nitro-1H-1,2,4-triazol-1-yl)ethanol]",IF (induction factor),"[1]; TA98, +S9, 0.5 µM",1.0
same,"revertant His+ colonies, mean ± SD","[1]; TA98, +S9, 0.5 µM",24 ± 2
same,IF (induction factor),"[1]; TA98, +S9, 5 µM",1.0
same,"revertant His+ colonies, mean ± SD","[1]; TA98, +S9, 5 µM",24 ± 7
same,IF (induction factor),"[1]; TA98, +S9, 50 µM",1.0
same,"revertant His+ colonies, mean ± SD","[1]; TA98, +S9, 50 µM",23 ± 3
same,IF (induction factor),"[1]; TA98, +S9, 500 µM",1.0
same,"revertant His+ colonies, mean ± SD","[1]; TA98, +S9, 500 µM",24 ± 5
same,IF (induction factor),"[1]; TA98, +S9, 5000 µM",1.1
same,"revertant His+ colonies, mean ± SD","[1]; TA98, +S9, 5000 µM",26 ± 1
same,Mutagenicity in the Ames test (verdict),"[1]; TA98, absence or presence of metabolic activation",not mutagenic
same,IF (induction factor),"[1]; TA98, −S9, 0.5 µM",0.9
same,"revertant His+ colonies, mean ± SD","[1]; TA98, −S9, 0.5 µM",23 ± 4
same,IF (induction factor),"[1]; TA98, −S9, 5 µM",0.9
same,"revertant His+ colonies, mean ± SD","[1]; TA98, −S9, 5 µM",23 ± 1
same,IF (induction factor),"[1]; TA98, −S9, 50 µM",1.1
same,"revertant His+ colonies, mean ± SD","[1]; TA98, −S9, 50 µM",30 ± 3
same,"revertant His+ colonies, mean ± SD","[1]; TA98, −S9, 500 µM",Cytotoxic
same,IF (induction factor),"[2]; TA1535, +S9, 0.5 µM",1.0
same,"revertant His+ colonies, mean ± SD","[2]; TA1535, +S9, 0.5 µM",11 ± 1
same,IF (induction factor),"[2]; TA1535, +S9, 5 µM",1.1
same,"revertant His+ colonies, mean ± SD","[2]; TA1535, +S9, 5 µM",12 ± 4
same,IF (induction factor),"[2]; TA1535, +S9, 50 µM",1.3
same,"revertant His+ colonies, mean ± SD","[2]; TA1535, +S9, 50 µM",14 ± 4
same,IF (induction factor),"[2]; TA1535, +S9, 500 µM",1.4
same,"revertant His+ colonies, mean ± SD","[2]; TA1535, +S9, 500 µM",15 ± 5
same,IF (induction factor),"[2]; TA1535, +S9, 5000 µM",1.4
same,"revertant His+ colonies, mean ± SD","[2]; TA1535, +S9, 5000 µM",15 ± 3
same,Mutagenicity in the Ames test (verdict),"[2]; TA1535, absence or presence of metabolic activation",not mutagenic
same,IF (induction factor),"[2]; TA1535, −S9, 0.5 µM",1.0
same,"revertant His+ colonies, mean ± SD","[2]; TA1535, −S9, 0.5 µM",21 ± 2
same,IF (induction factor),"[2]; TA1535, −S9, 5 µM",1.0
same,"revertant His+ colonies, mean ± SD","[2]; TA1535, −S9, 5 µM",26 ± 3
same,IF (induction factor),"[2]; TA1535, −S9, 50 µM",1.0
same,"revertant His+ colonies, mean ± SD","[2]; TA1535, −S9, 50 µM",23 ± 6
same,"revertant His+ colonies, mean ± SD","[2]; TA1535, −S9, 500 µM",Cytotoxic
same,"consumption rate by TcNTR, times higher than that of 9",[3]; 25 µM,3.4
same,Kobs Deriv./Kobs BZN 25 µM,"[3]; 25 µM derivative, ratio of mean Kobs to BZN",2.6
same,"consumption rate by TcNTR, times higher than that of 5",[3]; 50 µM,1.8
same,Kobs Deriv./Kobs BZN 50 µM,"[3]; 50 µM derivative, ratio of mean Kobs to BZN",3.0
same,IF (induction factor),"[4]; TA100, +S9, 0.5 µM",1.2
same,"revertant His+ colonies, mean ± SD","[4]; TA100, +S9, 0.5 µM",129 ± 21
same,IF (induction factor),"[4]; TA100, +S9, 5 µM",1.2
same,"revertant His+ colonies, mean ± SD","[4]; TA100, +S9, 5 µM",128 ± 6
same,IF (induction factor),"[4]; TA100, +S9, 50 µM",1.4
same,"revertant His+ colonies, mean ± SD","[4]; TA100, +S9, 50 µM",150 ± 14
same,IF (induction factor),"[4]; TA100, +S9, 500 µM",1.4
same,"revertant His+ colonies, mean ± SD","[4]; TA100, +S9, 500 µM",145 ± 8
same,IF (induction factor),"[4]; TA100, +S9, 5000 µM",1.7
same,"revertant His+ colonies, mean ± SD","[4]; TA100, +S9, 5000 µM",183 ± 9
same,Mutagenicity in the Ames test (verdict),"[4]; TA100, absence or presence of metabolic activation",not mutagenic
same,IF (induction factor),"[4]; TA100, −S9, 0.5 µM",1.1
same,"revertant His+ colonies, mean ± SD","[4]; TA100, −S9, 0.5 µM",77 ± 5
same,IF (induction factor),"[4]; TA100, −S9, 5 µM",1.1
same,"revertant His+ colonies, mean ± SD","[4]; TA100, −S9, 5 µM",77 ± 15
same,IF (induction factor),"[4]; TA100, −S9, 50 µM",1.1
same,"revertant His+ colonies, mean ± SD","[4]; TA100, −S9, 50 µM",77 ± 13
same,IF (induction factor),"[4]; TA100, −S9, 500 µM",1.3
same,"revertant His+ colonies, mean ± SD","[4]; TA100, −S9, 500 µM",91 ± 8
same,IF (induction factor),"[4]; TA100, −S9, 5000 µM",1.5
same,"revertant His+ colonies, mean ± SD","[4]; TA100, −S9, 5000 µM",108 ± 10
